The record followed here is ChEMBL document CHEMBL5729699, “Polypeptide compound, pharmaceutical composition, preparation method and application thereof” (2023).

For one experiment, the target named is T1, Cytochrome P450 1A2 (Homo sapiens, UniProt P05177).
T1 sequence (P05177 whole entry): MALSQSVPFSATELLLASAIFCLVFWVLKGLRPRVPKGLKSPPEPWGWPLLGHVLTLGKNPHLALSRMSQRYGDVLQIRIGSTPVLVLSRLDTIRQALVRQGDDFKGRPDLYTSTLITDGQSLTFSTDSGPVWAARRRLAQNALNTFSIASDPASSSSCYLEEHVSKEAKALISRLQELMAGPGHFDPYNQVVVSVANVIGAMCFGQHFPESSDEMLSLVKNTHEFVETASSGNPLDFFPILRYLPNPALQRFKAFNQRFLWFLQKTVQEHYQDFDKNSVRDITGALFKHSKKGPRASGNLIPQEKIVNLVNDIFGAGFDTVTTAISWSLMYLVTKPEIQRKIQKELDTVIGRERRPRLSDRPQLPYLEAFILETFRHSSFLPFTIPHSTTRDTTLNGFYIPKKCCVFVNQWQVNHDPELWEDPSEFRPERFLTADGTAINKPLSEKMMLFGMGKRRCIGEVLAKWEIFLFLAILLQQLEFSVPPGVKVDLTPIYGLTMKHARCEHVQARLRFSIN
The experiment can be described thus: (§1) Inhibition of Cytochrome P450 Oxidase: The human liver microsomes (0.253 mg/mL protein) containing cytochrome P450, test compounds (0.05-50 μM), CYPs substrates (10 μM […], 5 μM diclofenac, 30 μM mephenytoin, 5 μM dextromethorphan hydrobromide, 2 μM midazolam), 1.0 mM NADP were incubated at 37° C. for 10 minutes. Naflavone, sulfafenpyrazole, N-3-benzylnivan, quinidine, and ketoconazole were used as reference inhibitors.

The next experiment deals with Cytochrome P450 2C19 (Homo sapiens, UniProt P33261). The description is as §1.
Chain of Cytochrome P450 2C19 (P33261 whole entry): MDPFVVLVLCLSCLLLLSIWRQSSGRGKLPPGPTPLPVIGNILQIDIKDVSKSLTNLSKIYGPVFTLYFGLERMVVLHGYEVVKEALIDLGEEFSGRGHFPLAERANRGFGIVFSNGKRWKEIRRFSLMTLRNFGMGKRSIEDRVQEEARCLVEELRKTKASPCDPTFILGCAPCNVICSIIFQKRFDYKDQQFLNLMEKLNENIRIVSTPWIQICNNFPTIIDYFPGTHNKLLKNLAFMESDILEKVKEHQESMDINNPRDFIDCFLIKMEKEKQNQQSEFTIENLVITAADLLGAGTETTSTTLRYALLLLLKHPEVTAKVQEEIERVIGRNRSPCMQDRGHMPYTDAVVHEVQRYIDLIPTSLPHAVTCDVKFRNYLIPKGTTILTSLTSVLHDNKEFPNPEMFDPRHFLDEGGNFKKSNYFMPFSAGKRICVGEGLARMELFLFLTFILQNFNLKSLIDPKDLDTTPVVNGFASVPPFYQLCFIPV
Another experiment concerns the target Cytochrome P450 2C9 (Homo sapiens, UniProt P11712). The description is as §1.
In another experiment the target is Cytochrome P450 2D6 (Homo sapiens, UniProt P10635). The experiment is described as §1.
Chain of Cytochrome P450 2D6 (P10635 whole entry): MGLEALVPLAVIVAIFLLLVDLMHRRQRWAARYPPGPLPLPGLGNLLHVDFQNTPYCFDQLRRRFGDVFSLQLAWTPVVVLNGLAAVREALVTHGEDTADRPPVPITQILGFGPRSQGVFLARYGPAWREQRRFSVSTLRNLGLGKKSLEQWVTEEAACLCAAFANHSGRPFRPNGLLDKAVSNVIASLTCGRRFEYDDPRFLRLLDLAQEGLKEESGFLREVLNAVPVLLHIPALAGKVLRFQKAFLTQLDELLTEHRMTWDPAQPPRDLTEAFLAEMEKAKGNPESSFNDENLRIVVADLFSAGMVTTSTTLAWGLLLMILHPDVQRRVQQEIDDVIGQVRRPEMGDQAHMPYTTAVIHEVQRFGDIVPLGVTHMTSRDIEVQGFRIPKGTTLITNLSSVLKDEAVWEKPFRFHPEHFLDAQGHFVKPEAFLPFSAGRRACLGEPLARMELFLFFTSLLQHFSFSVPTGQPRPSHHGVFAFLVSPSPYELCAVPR
In a further experiment the target is Cytochrome P450 3A4 (Homo sapiens, UniProt P08684). The experiment is described as §1.
Chain of Cytochrome P450 3A4 (P08684 whole entry): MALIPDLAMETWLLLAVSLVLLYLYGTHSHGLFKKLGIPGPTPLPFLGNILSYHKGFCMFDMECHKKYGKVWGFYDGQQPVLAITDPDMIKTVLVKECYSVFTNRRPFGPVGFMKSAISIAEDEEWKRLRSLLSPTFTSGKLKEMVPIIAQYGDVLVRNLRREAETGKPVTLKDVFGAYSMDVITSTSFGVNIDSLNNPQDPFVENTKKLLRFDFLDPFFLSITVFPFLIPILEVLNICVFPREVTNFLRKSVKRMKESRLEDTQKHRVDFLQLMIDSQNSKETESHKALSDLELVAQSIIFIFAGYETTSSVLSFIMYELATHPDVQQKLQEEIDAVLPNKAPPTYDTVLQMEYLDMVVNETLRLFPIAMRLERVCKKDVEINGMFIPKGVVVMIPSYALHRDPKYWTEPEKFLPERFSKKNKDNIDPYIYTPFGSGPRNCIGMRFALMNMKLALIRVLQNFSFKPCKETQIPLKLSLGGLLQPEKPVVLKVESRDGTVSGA
For experiment [1], the target named is Kappa-type opioid receptor (Homo sapiens, UniProt P41145). Description: Agonistic activity of the kappa-opioid receptors: Forskolin can stimulate the release of cAMP from HEK293 cells with high expression of human κ (or μ, or δ)-opioid receptors. […] The efficacy of the compounds of the invention as κ-opioid receptor agonists was determined by measuring the ability of the compounds of Examples to inhibit adenylate cyclase activity.Cell culture: The HEK293 cell line highly expressing human κ (or μ, or δ)-opioid receptor were cultured in DMEM medium containing 10% FBS.Stimulation: the test compound was 4-fold diluted in a gradient manner to obtain 10 concentrations, and 50 nl of each was transferred to a 384-well plate, and then 10 nl Forskolin was added; the cells were digested, re-suspended, and counted; and then 10 μl of cell suspension (5×10^5 cell/mL) was added, and the cells were mixed gently, and incubated at 23° C. for 60 minutes.Detection: cAMP Assay Kit (Cisbio) was used, cAMPD2 and Anti-cAMP conjugate were added, and the resultant mixture was incubated for 1 h at room temperature. The plate was read using envision (Perkin Elmer) and EC50 was obtained by means of fitting with a four-parameter equation. The experiment is classed as cell-based.
Chain of Kappa-type opioid receptor (P41145 whole entry): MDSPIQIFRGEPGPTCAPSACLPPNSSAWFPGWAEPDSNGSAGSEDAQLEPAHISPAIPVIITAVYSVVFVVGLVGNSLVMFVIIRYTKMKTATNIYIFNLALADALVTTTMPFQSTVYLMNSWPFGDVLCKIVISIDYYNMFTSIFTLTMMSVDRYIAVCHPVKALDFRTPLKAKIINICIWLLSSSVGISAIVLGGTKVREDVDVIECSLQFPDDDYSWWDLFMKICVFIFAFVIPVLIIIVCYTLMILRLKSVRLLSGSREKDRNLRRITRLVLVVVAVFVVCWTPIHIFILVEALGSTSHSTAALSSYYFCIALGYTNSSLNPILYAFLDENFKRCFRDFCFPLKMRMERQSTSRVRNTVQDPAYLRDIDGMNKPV

Where only a bound is given, the exact number is not on record here.

Chain of Cytochrome P450 2C9 (P11712 whole entry): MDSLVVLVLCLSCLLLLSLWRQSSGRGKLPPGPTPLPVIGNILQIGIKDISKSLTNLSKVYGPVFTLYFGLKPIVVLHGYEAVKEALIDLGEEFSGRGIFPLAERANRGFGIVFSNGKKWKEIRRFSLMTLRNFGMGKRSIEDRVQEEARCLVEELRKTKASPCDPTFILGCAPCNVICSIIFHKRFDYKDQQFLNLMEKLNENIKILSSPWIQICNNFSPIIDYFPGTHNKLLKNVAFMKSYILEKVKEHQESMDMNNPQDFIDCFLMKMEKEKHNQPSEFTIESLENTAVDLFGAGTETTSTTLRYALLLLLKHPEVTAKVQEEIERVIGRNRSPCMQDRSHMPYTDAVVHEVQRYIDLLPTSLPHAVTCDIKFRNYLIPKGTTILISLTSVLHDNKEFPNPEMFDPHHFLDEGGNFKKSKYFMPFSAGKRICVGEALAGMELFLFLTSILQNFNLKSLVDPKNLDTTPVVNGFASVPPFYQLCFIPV

As to `CC(C)C[C@@H](NC(=O)[C@@H](Cc1ccccc1)NC(=O)[C@H](N)Cc1ccccc1)C(=O)N[C@H](CCCCN)C(=O)N1CCC(N)(B(O)O)CC1`, the IC50 at Cytochrome P450 1A2, on Cytochrome P450 2C19, at Cytochrome P450 2C9, at Cytochrome P450 2D6 and at Cytochrome P450 3A4 was more than 50 µM in each case.

Turning to `CC(C)C[C@@H](NC(=O)[C@@H](Cc1ccccc1)NC(=O)[C@H](N)Cc1ccccc1)C(=O)N[C@H](CCCCN)C(=O)N1CC=C(B(O)O)C1`, the IC50 at Cytochrome P450 1A2, on Cytochrome P450 2C19, on Cytochrome P450 2C9, at Cytochrome P450 2D6 and at Cytochrome P450 3A4 was more than 50 µM each time.

With `CC(C)C[C@@H](NC(=O)[C@@H](Cc1ccccc1)NC(=O)[C@H](N)Cc1ccccc1)C(=O)N[C@H](CCCCN)C(=O)N1CC[C@@H](B(O)O)C1`, the IC50 on Cytochrome P450 1A2, at Cytochrome P450 2C19, at Cytochrome P450 2C9, on Cytochrome P450 2D6 and on Cytochrome P450 3A4 was more than 50 µM in each case.

Consider `CC(C)C[C@@H](NC(=O)[C@@H](Cc1ccccc1)NC(=O)[C@H](N)Cc1ccccc1)C(=O)N[C@H](CCCCN)C(=O)N1CCC[C@H]1B(O)O`, for which the EC50 in experiment [1] was determined as 1 pM. In addition, the IC50 at Cytochrome P450 1A2, on Cytochrome P450 2C19, at Cytochrome P450 2C9, at Cytochrome P450 2D6 and at Cytochrome P450 3A4 was more than 50 µM throughout.
